Data from patent US20240279232A1, “USE OF SUBSTITUTED 5-(4-METHYL-6-PHENYL-4H-BENZO[F]IMIDAZO[1,5-A][1,4] DIAZEPIN-3-YL)-1,2,4-O[…] THE TREATMENT OF INFLAMMATORY CONDITIONS” (priority 2021, published 2024).
Like-named read-outs stand apart in the source and are kept apart here.

Experiments:
[1] = molecular target: T1, KOR (κ opioid receptor) (Homo sapiens, UniProt P41145); assay: KOR radioligand binding ([3H]-U69593, HEK293 cell homogenates); details: for inhibition at 10 µM: Percent inhibition at 10,000 nM
T1 construct: expressed in transfected cells; host or cells: HEK293 (stably transfected)

[2] = molecular target: T2, MOR (μ opioid receptor) (Homo sapiens, UniProt P35372); assay: MOR radioligand binding ([3H]-DAMGO, HEK293 cell homogenates); details: for inhibition at 10 µM: Percent inhibition at 10,000 nM, [3H]-DAMGO
T2 construct: expressed in transfected cells; host or cells: HEK293

[3] = tested on: BZR (benzodiazepine site of GABAAR); assay: GABAAR/BZR binding, rat brain homogenate with 3H-flunitrazepam; details: for BZR %: Percent inhibition at 10,000 nM
How it was run: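 Primary screen at 10,000 nM; where displacement exceeded 50%, Ki came from nonlinear regression of concentration–response data (n=6). Radioligand was 3H-flunitrazepam at roughly Kd on rat brain homogenate, usually 90 min, room temperature, dark, with 10 μM reference compound for nonspecific binding, then filtration and scintillation counting.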

[4] = tested on: RAW macrophages; assay: NO production (Griess assay), LPS/IFNγ-activated RAW264.7 macrophages; format: cell-based, mouse; details: Mus musculus, Macrophage, 24 h
[5] = tested on: Mouse microglia; assay: Cell viability (CellTiter-Glo), mouse microglia; format: cell-based; details: 50 μM; for Cell viability (%) Mouse microglia 50 μM: CellTiter-Glo; for toxicity at 50 μM (in words): microglia
How it was run: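 Mouse microglia (1×10^6 cells/mL) activated with 50 ng/ml LPS plus 150 U/mL IFNγ, incubated with compounds ~24 h at 37° C. Viability of remaining cells read by CellTiter-Glo luminescence after supernatant removal for Griess NO assay; […].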

[6] = tested on: HEK293; assay: Viability assay (CellTiter-Glo), HEK293; format: cell-based, human; details: for Cell viability (%) HEK293 120 μM: CellTiter-Glo; for toxicity at 120 μM (in words): HEK293, 120 μM
[7] = tested on: HEPG2; assay: Viability assay (CellTiter-Glo), HEPG2; format: cell-based, human; details: for Cell viability (%) HEPG2 120 μM: CellTiter-Glo; for toxicity at 120 μM (in words): HepG2, 120 μM
[8] = concentration-dependent, [3H]-U69593, read-out: KOR (Ki)
[9] = rat brain homogenate, 3H-flunitrazepam

Row | Compound | inhibition at 10 µM ([1]; [3H]-U69593) | Ki [1, 8] | inhibition at 10 µM [2] | BZR % [3, 9] | Ki [3, 9] | inhibition at 10 µM [4] | Cell viability (%) Mouse microglia 50 μM [5] | Cell viability (%) HEK293 120 μM [6] | Cell viability (%) HEPG2 120 μM [7] | Ki [1] | inhibition at 50 µM [4] | toxicity at 120 μM (in words) [6] | toxicity at 120 μM (in words) [7] | toxicity at 50 μM (in words) [5] | IC50 [1] | Percent Competition KOR ([1]; PDSP primary screening) | Percent Competition MOR ([2]; PDSP primary screening) | Percent Competition BZP Rat Brain Site ([3]; PDSP primary screening) | IC50 ([3]; rat brain homogenate, 3H-flunitrazepam, read-out: affinity for the benzodiazepine site of GABAARs (IC50))
1 | CCOC(=O)c1ncn2c1[C@@H](C)N=C(c1ccccn1)c1cc(Br)ccc1-2 [GL-II-06] | 79% | 401 nM | 11% | 81% | 556 nM | 4 ± 2% | 87 ± 13% | 83 ± 13% | 89 ± 5% |  |  |  |  |  |  |  |  |  | 
2 | C[C@H]1N=C(c2ccccn2)c2cc(Br)ccc2-n2cnc(C(=O)O)c21 [GL-II-51] | 11% |  | 0% | 84% | 181 nM | 0% | 95 ± 2% | 91 ± 4% | 100 ± 16% |  |  |  |  |  |  |  |  |  | 
3 | C[C@H]1N=C(c2ccccc2F)c2cc(Br)ccc2-n2cnc(-c3cnco3)c21 [GL-III-36] | 88% |  | 0% | 86% | 319 nM | 0% | 97 ± 9% | 80 ± 9% | 100 ± 9% | 246 nM | 58 ± 9% |  |  |  |  |  |  |  | 
4 | CCOC(=O)c1ncn2c1[C@@H](C)N=C(c1ccccc1F)c1cc(C3CC3)ccc1-2 [GL-III-42] | 86% |  | 0% | 62% | 726 nM | 0% | 82 ± 10% | 62 ± 11% | 100 ± 8% | 174 nM |  |  |  |  |  |  |  |  | 
5 | C[C@H]1N=C(c2ccccc2F)c2cc(Cl)ccc2-n2cnc(C(=O)O)c21 [GL-III-54] | 22% |  | 0% | 100% | 42 nM | 6 ± 4% | 82 ± 6% | 96 ± 12% | 93 ± 4% |  |  |  |  |  |  |  |  |  | 
6 | Cc1noc(-c2ncn3c2[C@@H](C)N=C(c2ccccc2F)c2cc(Br)ccc2-3)n1 [GL-III-60, (R)-5-(8-Bromo-6-(2-fluorophenyl)-4-methyl-4H-benzo[f]imidazo[1,5-a][1,4]diazepin-3-yl)-3-methyl-1,2,4-oxadiazole] | 87% |  | 26% | 100% | 784 nM | 0% | 100 ± 9% | 64 ± 6% | 100 ± 11% | 232 nM | 39 ± 8% |  |  |  |  |  |  |  | 
7 | Cc1noc(-c2ncn3c2[C@@H](C)N=C(c2ccccc2F)c2cc(C4CC4)ccc2-3)n1 [GL-III-63, (R)-5-(8-Cyclopropyl-6-(2-fluorophenyl)-4-methyl-4H-benzo[f]imidazo[1,5-a][1,4]diazepin-3-yl)-3-methyl-1,2,4-oxadiazole] | 78% |  | 8% | 28% |  | 13 ± 4% | 100 ± 8% | 18 ± 4% | 16 ± 6% | 678 nM | 62 ± 12% | toxic | toxic |  |  |  |  |  | 
8 | C#Cc1ccc2c(c1)C(c1ccccc1F)=N[C@H](C)c1c(C(=O)NC(C)C)ncn1-2 [GL-III-66] | 63% | 233 nM | 0% | 88% | 271 nM | 6 ± 4% | 85 ± 15% | 46 ± 4% | 86 ± 8% |  |  |  |  |  |  |  |  |  | 
9 | CCNC(=O)c1ncn2c1[C@@H](C)N=C(c1ccccc1F)c1cc(C3CC3)ccc1-2 [GL-III-68] | 88% |  | 0% | 100% | 452 nM | 5 ± 1% | 83 ± 3% | 56 ± 11% | 83 ± 2% |  |  |  |  |  |  |  |  |  | 
10 | C[C@H]1N=C(c2ccccc2F)c2cc(Br)ccc2-n2cnc(C(=O)N(C)C)c21 [GL-III-69] | 75% | 511 nM | 0% | 100% | 446 nM | 0% | 87 ± 6% | 73 ± 10% | 88 ± 5% |  |  |  |  |  |  |  |  |  | 
11 | C[C@H]1N=C(c2ccccc2F)c2cc(C3CC3)ccc2-n2cnc(C(=O)N(C)C)c21 [GL-III-70] | 68% | 800 nM | 0% | 100% | 3400 nM | 2 ± 2% | 86 ± 2% | 86 ± 12% | 100 ± 5% |  |  |  |  |  |  |  |  |  | 
12 | C#Cc1ccc2c(c1)C(c1ccccc1F)=N[C@H](C)c1c(-c3cnco3)ncn1-2 [GL-III-73] | 74% |  | 12% | 65% | 602 nM | 1 ± 6% | 80 ± 9% | 86 ± 6% | 100 ± 9% | 449 nM |  |  |  |  |  |  |  |  | 
13 | C[C@@H]1N=C(c2ccccc2F)c2cc(Br)ccc2-n2cnc(-c3cnco3)c21 [GL-III-76] | 83% |  | 3% | 100% | 120 nM | 0% | 80 ± 2% | 59 ± 4% | 90 ± 6% | 221 nM |  |  |  |  |  |  |  |  | 
14 | C#Cc1ccc2c(c1)C(c1ccccc1F)=N[C@@H](C)c1c(-c3cnco3)ncn1-2 [GL-III-78] | 74% |  | 10% | 101% | 26 nM | 0% | 79 ± 6% | 56 ± 8% | 100 ± 15% | 451 nM |  |  |  |  |  |  |  |  | 
15 | CCc1noc(-c2ncn3c2[C@@H](C)N=C(c2ccccc2F)c2cc(C4CC4)ccc2-3)n1 [GL-IV-03, (R)-5-(8-Cyclopropyl-6-(2-fluorophenyl)-4-methyl-4H-benzo[f]imidazo[1,5-a][1,4]diazepin-3-yl)-3-ethyl-1,2,4-oxadiazole] | 91% |  | 25% | 65% |  | 75% | 100 ± 5% | 47 ± 5% | 39 ± 5% | 232 nM |  | some cytotoxicity | to a lesser degree | no significant toxicity |  |  |  |  | 
16 | C#Cc1ccc2c(c1)C(c1ccccc1F)=N[C@H](C)c1c(C(=O)NC)ncn1-2 [MP-III-022] | 80% | 381 nM | 3% | 95% | 83 nM | 9 ± 5% | 86 ± 2% | 75 ± 13% | 94 ± 7% |  | 51 ± 7% |  |  |  |  |  |  |  | 
17 | C#Cc1ccc2c(c1)C(c1ccccc1F)=N[C@H](C)c1c(-c3nc(C)no3)ncn1-2 [MP-IV-004] | 86% |  | 7% | 63% | 1080 nM | 0% | 100 ± 5% | 40 ± 8% | 100 ± 4% | 444 nM | 51 ± 7% |  |  |  |  |  |  |  | 
18 | C#Cc1ccc2c(c1)C(c1ccccc1F)=N[C@H](C)c1c(-c3nc(C(C)C)no3)ncn1-2 [MP-IV-010, (R)-5-(8-ethynyl-6-(2-fluorophenyl)-4-methyl-4H-benzo[f]imidazo[1,5-a][1,4]diazepin-3-yl)-3-isopropyl-1,2,4-oxadiazole] | 94% |  | 33% | 64% | 814 nM | 10 ± 2% | 91 ± 10% | 41 ± 4% | 45 ± 7% | 145 nM | 63 ± 11% | some cytotoxicity | to a lesser degree | no significant toxicity | 351 nM | 94% | 33% | 64% | 2500 nM
